Patent US12605354B2, “Azelaic acid esters in the treatment or prevention of dyslipidemia and associated conditions” (NEW FRONTIER LABS, LLC, priority 2020, dated 2026)
Entries after “also recorded” stand apart in the source; their conditions may differ. Marks after values point to notes of the source that are not given here.

Key:
Type in all cases: in vivo, human
[1] = tested on: overweight to obese males; experiment: 21-day oral DEA study: tolerability, adverse effects
Procedure: (§1) The subjects were overweight to obese males with body mass indices (BMIs) ranging from 27.2 to 43.6 kg/m^2, glycated hemoglobin A1c (HbA1c) of 5.0-6.2% and insulin levels of 8.8-52 μU/mL. The study was conducted by Clinical Trials of Texas, Inc. in San Antonio, TX. The cohort represented a population at risk for the development of T2D. The study was restricted to male participants to control for the variability of insulin sensitivity associated with the menstrual cycle. The subjects received 21 daily oral doses (“q1d”) of 1 mg/kg DEA. An OGTT, in which 75 grams of glucose in a total volume of 300 mL was administered orally to subjects, was performed on Day 0 and again on Day 21 and glucose measurements performed at −30, −5 and 0 min, insulin measurements at −30 and 0 min, and both glucose measurements and insulin measurements at 30, 60, 90, 120 and 180 minutes, where “0 min” is the time at which the glucose solution was administered. The 180-minute time point was selected to gain an early insight into the possible signal of drug action. Blood lipid levels (triglycerides, cholesterol, HDL, non-cholesterol HDL and LDL) were measured before the onset of treatment on Day 0 and again on Day 21. The error of the assays was <5% [36].

[2] = tested on: subject, with diet induced insulin resistance and diabetes; experiment: Example 2: fasting blood lipids after buccal or gastric delivery of DEA; details: for TC, triglyceride, and Calc LDL levels and TC/HDL ratio: all tested dosages vs 0 mg/kg
From the text: (§2) Described in this example is an evaluation of the effects of alkyl azelates, such as DEA, on certain markers of insulin resistance and dyslipidemia, namely, blood plasma glucose, insulin levels and/or lipid levels, when administered either for buccal delivery or for gastric delivery in a subject, with diet induced insulin resistance and diabetes with a BMI of approximately 27.
(§3) Diethyl azelate was synthesized from azelaic acid and ethyl alcohol sing the standard acid-catalyzed esterification followed by fractional distillation to produce DEA to 99% purity as determined by chromatography-mass spectrometry (GC-MS). The 99% distilled DEA distillation product was administered in unformulated, unencapsulated, etc. form (i.e., “as is”) for buccal delivery as indicated below.
(§4) For gastric delivery, the 99% DEA distillation product was placed in a hard gelatin capsule, size 00 (PureCaps USA, Philmont, NY) and administered for gastric delivery by swallowing with a drink of water.
Fasting blood levels of cholesterol, high density lipoprotein (HDL) cholesterol, and triglycerides were measured using Lipid Panel PTS test strips and CardioChek P-A test system (Polymer Technology Systems, Inc., Indianapolis, IN) according to the manufacturer's instructions.

[3] = tested on: overweight to obese males; experiment: 21-day oral DEA study: fasting plasma glucose and OGTT glucose; details: for AUC Glucose: 180-minute OGTT, in mg·min/dL (unit assumed); for AUC Glucose / Fasting plasma glucose / Glucose 180 min: D21 post-treatment, 21 daily oral doses of 1 mg/kg, mean; for Glucose 180 min: OGTT
From the text: Seventeen subjects were recruited by sampling a large population at risk for T2D (according to convenience sample; a statistical method of drawing representative data) to measure the changes in glucose, lipid and insulin measurements after an OGTT after the subjects had been treated for 21 days.
as §1
The results of the various marker measurements at Day 0 and Day 21 were compared using both the paired Students T-test and the Wilcoxon signed rank test. The results of both calculations are provided; the p-value from the paired Student T-test first, followed by the p-value from the Wilcoxon signed rank test. Generalized Estimating Equations and bootstrapping were used to verify the results generated with other methods. Fasting glucose was calculated as the average of the −30, −5, and 0-minute measurements and fasting insulin was calculated as the average of the −30- and 0-minute measurements. Spearman's correlation coefficient was calculated for the relationship between A1c and pre-treatment fasting plasma glucose versus post-treatment fasting plasma glucose. Area under the curve (AUC) was calculated over the 180-minute time span of the OGTT. All analyses were performed using the open language engine R 3.4.4. Statistical significance was at the α=0.05 level.
For measuring the effect of DEA on blood glucose, an assessment of fasting plasma glucose levels was relied upon, which is a measure that is commonly used as an indication that a subject may be diabetic. A level under 100 mg/dL is considered clinically normal while the range between 100 and 125 mg/dL is indicative of prediabetes. At the threshold of 100 mg/dL the human body begins to have a compromised insulin response to glucose shock. The OGTT was used, in which a standard dose of glucose was ingested by mouth, and blood samples were taken at specified time points after ingestion. Plasma blood glucose measurements were then obtained as a means of understanding the pharmacodynamic effects of DEA.

[4] = tested on: subject, with diet induced insulin resistance and diabetes; experiment: Example 2: plasma glucose in OGTT after buccal or gastric delivery of DEA; details: for plasma glucose levels during OGTT: 0, 1, 2, 4 hours, FIG. 16
From the text: as §2, §3, §4
Fasting blood glucose levels were measured using UniStrip blood glucose test strips (UniStrip Technologies LLC, Charlotte, NC) and OneTouchUltra 2 blood glucose meter (LifeScan OneTouch, Tampa. FL).

[5] = buccal delivery, 0.5, 1, 2, 4 mg/kg vs 0 mg/kg, FIG. 8, greatest lowering at 0.5 mg/kg

Compound: CCOC(=O)CCCCCCCC(=O)OCC [DEA, diethyl azelate]
- tolerability of daily oral DEA ([1]; 17 subjects, 21 daily oral doses of 1 mg/kg, 1 mg/kg): well tolerated by all study subjects
- Hypoglycemia ([1]; 21-day study): Neither metformin nor DEA administration as presented herein induced hypoglycemia; also recorded: no effect
- Side effects ([1]; 21-day study): mild transient diarrhea (1/17 subjects)
- adverse effects ([1]; first week of treatment, no other adverse effects reported): only one subject experienced transient mild diarrhea
- improvement in total cholesterol and TC/HDL ratio, buccal relative to gastric delivery ([2]; FIG. 17, T test): statistically significant greater improvement
- HDL levels ([2]; buccal delivery, 0.5, 1, 2, 4 mg/kg vs 0 mg/kg, FIG. 8): increased at all DEA doses tested
- Triglycerides [2, 5]: lowered
- calculated LDL [2, 5]: lowered
- total cholesterol [2, 5]: lowered
- HDL levels ([2]; buccal delivery, all dosages vs 0 mg/kg, FIG. 15): elevated (i.e., improved)
- TC/HDL ratio ([2]; buccal delivery, all tested amounts 0.5-4 mg/kg vs no DEA, FIG. 9, lowered the most with 0.5 mg/kg): lowered (i.e., improved) TC/HDL ratio
- TC, triglyceride, and Calc LDL levels and TC/HDL ratio ([2]; buccal delivery, FIG. 15, more pronounced at 1 mg/kg): lowered (i.e., improved)
- HDL levels ([2]; gastric delivery, all dosages vs 0 mg/kg, FIG. 15): elevated (i.e., improved)
- TC, triglyceride, and Calc LDL levels and TC/HDL ratio ([2]; gastric delivery, FIG. 15, more pronounced at 0.25 mg/kg): lowered (i.e., improved)
- average decrease of fasting glucose ([3]; 8 subjects with a fasting glucose≥100 mg/dL, Day 21 vs Day 0, p=0.033, p=0.06): 6.06 mg/dL
- AUC Glucose ([3]; All (n = 17), D0 25826): 25356
- AUC Glucose ([3]; FPG <100 mg/dL (n = 8), D0 23530): 24475
- AUC Glucose ([3]; FPG >100 mg/dL (n = 9), D0 27867): 26138
- AUC Glucose ([3]; High A1c (n = 9), D0 27313): 25889
- AUC Glucose ([3]; Low A1c (n = 8), D0 24153): 24756
- Fasting plasma glucose ([3]; All (n = 17), D0 101.662): 99.732 mg/dL
- Fasting plasma glucose ([3]; FPG <100 mg/dL (n = 8), D0 92.769): 97.25 mg/dL
- Fasting plasma glucose ([3]; FPG >100 mg/dL (n = 9), D0 109.567, P < 0.01): 101.939** mg/dL
- Fasting plasma glucose ([3]; High A1c (n = 9), D0 105.156): 100.261 mg/dL
- Fasting plasma glucose ([3]; Low A1c (n = 8), D0 97.731): 99.138 mg/dL
- Glucose 180 min ([3]; All (n = 17), D0 100.315): 91.579 mg/dL
- Glucose 180 min ([3]; FPG <100 mg/dL (n = 8), D0 89.919): 86.494 mg/dL
- Glucose 180 min ([3]; FPG >100 mg/dL (n = 9), D0 109.556): 96.1 mg/dL
- Glucose 180 min ([3]; High A1c (n = 9), D0 108.978): 95.128 mg/dL
- Glucose 180 min ([3]; Low A1c (n = 8), D0 90.569): 87.588 mg/dL
- increase of post-treatment fasting glucose ([3]; entire cohort of 17 subjects, Day 21 vs Day 0, insignificant (p=0.962; p=0.96)): 0.11 mg/dL
- average decrease of glucose at 180 minutes ([3]; entire cohort, not significant (p=0.136; 0.057)): 9.14%
- decrease in 180 min plasma glucose after treatment ([3]; remaining 16 subjects (subject #1 excluded), p=0.002, 0.003): 13.5%
- increase of glucose at 180 minutes ([3]; single outlier (subject #1)): 58.6%
- fasting glucose level post-treatment ([3]; subject #1 (A1c 6.2%), decreased from 123.8): 116.3 mg/dL
- 180 min glucose level post-treatment ([3]; subject #1 (A1c 6.2%), decreased from 200.0): 184.5 mg/dL
- 180 min glucose level post-treatment ([3]; subject #2 (A1c 6.1%), from 88.3): 69 mg/dL
- 180 min glucose level post-treatment ([3]; subject #3 (A1c 6.0%), from 146): 119 mg/dL
- average decrease of fasting glucose ([3]; subjects with HbA1c≥5.6%, Day 21 vs Day 0, p=0.128, p=0.22): 4.25 mg/dL
- median decrease of glucose levels at 180 minutes ([3]; subset of 12 subjects, Day 21): 25.3%
- average decrease of glucose levels at 180 minutes ([3]; subset of 12 subjects, Day 21, p<0.001): 21.7%
- improvement in plasma glucose levels, buccal relative to gastric delivery ([4]; at 0 hour and 4 hours after 75 grams of glucose in OGTT, FIG. 17, T test): significantly significant greater improvement
- plasma glucose levels during OGTT ([4]; buccal delivery vs 0 mg/kg, more pronounced at 0.5 mg/kg): lowered (i.e., improved) plasma glucose levels at most tested DEA dosages and post-glucose ingestion time points
- plasma glucose concentrations during OGTT ([4]; buccal, 0.5-4 mg/kg vs 0, 0, 1, 2, 4 hours after 75 grams of glucose, FIG. 10, most pronounced at 0.5 and 1 mg/kg): lowered (improved) plasma glucose levels
- plasma glucose concentrations during fasting OGTT ([4]; buccal, 0.5-4 mg/kg vs 0, FIG. 11, most pronounced at 0.5 and 1 mg/kg): lowered (improved) plasma glucose levels
- plasma glucose concentrations during OGTT at 1 hour ([4]; buccal, 0.5-4 mg/kg vs 0, FIG. 12, most pronounced at 0.5 mg/kg): lowered (improved) plasma glucose levels in the setting of OGTT at all DEA dosage amounts
- plasma glucose concentrations during OGTT at 2 hours ([4]; buccal, 0.5-4 mg/kg vs 0, FIG. 13, most pronounced at 0.5 and 1 mg/kg): lowered (improved) plasma glucose levels in the setting of OGTT at all DEA dosage amounts
- plasma glucose concentrations during OGTT at 4 hours ([4]; buccal, 0.5-4 mg/kg vs 0, FIG. 14): lowered (improved) plasma glucose levels in the setting of OGTT at the 0.5 mg/kg, 1 mg/kg, and 4 mg/kg DEA dosage amounts
- plasma glucose levels during OGTT ([4]; gastric delivery vs 0 mg/kg, more pronounced at 0.25 mg/kg): lowered (i.e., improved) plasma glucose levels at most tested DEA dosages and post-glucose ingestion time points
